{
  "source": "patent US7264956B2",
  "about": "“Compounds and methods for inhibiting axillary malodour” (Givaudan SA, priority 2001, dated 2007)",
  "key": {"[1]": {"target": "T1, enzyme extracted from Corynebacterium striatum A×20 (AMRE, Nα-acyl-glutamine-aminoacylase) (Corynebacterium striatum, UniProt Q8GGD4)", "T1 construct": "an enzyme may be isolated from cellular extracts obtained from wild-type bacterial strains; endogenous in cells; host or cells: Corynebacterium striatum Ax20 (DSM 14267), mechanically disrupted; crude extract or chromatographically purified enzyme", "T1 sequence (Q8GGD4 2-400)": "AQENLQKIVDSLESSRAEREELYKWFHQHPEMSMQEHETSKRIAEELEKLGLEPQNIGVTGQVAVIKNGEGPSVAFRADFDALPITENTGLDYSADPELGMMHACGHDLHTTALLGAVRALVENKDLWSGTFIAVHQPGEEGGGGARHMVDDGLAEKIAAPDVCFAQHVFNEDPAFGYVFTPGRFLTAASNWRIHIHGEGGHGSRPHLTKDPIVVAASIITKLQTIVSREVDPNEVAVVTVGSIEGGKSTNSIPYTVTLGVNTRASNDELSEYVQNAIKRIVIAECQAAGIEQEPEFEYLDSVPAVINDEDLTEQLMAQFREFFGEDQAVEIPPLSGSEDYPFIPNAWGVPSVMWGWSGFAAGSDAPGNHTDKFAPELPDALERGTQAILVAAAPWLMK", "assay": "Substrate specificity of the enzyme (capillary GC of released acid or alcohol)", "assay_type": "biochemical", "settings": "for Cleavage by enzyme: 500 ppm in Buffer A, 24 h incubation", "procedure": "To understand in detail the structural requirements of substrates, the enzyme extracted from Corynebacterium striatum A×20 was incubated with a wide variety of said compounds related to the originally isolated Nα-3-methyl-3-hydroxy-hexanoyl-L-glutamine present in sweat. Each compound was used at a concentration of 500 ppm in Buffer A, and analysis of released acid or alcohol was done by capillary GC after 24 h of incubation. First, different modifications at the N-terminus were tested."}, "[2]": {"target": "T2, purified enzyme from Corynebacterium striatum A×20 (Corynebacterium striatum, UniProt Q8GGD4)", "T2 construct": "an enzyme may be isolated from cellular extracts obtained from wild-type bacterial strains; endogenous in cells; host or cells: Corynebacterium striatum Ax20 (DSM 14267), mechanically disrupted; crude extract or chromatographically purified enzyme", "T2 sequence (Q8GGD4 2-400)": "as above", "assay_type": "biochemical", "settings": "for enzyme activity after incubation with serin-/cystein protease inhibitor: purified enzyme", "procedure": "Corynebacterium striatum A×20 was selected to isolate and purify the enzyme responsible for the cleavage of the precursor Nα-3-hydroxy-3-methyl-hexanoyl-L-glutamine. The strain was grown during 48 h in Mueller-Hinton broth amended with 0.01% Tween 80. A total volume of 2 L of culture was harvested by centrifugation. The pellet was washed in Buffer A (50 mM NaCl; 50 mM NaH2PO4/K2HPO4 buffer at pH 7) and this buffer was used throughout the whole purification procedure. The cells were disrupted mechanically by vortexing them with glass beads (425–600 μm, Sigma, St-Louis, USA) during 30 min at maximal speed. The crude cell lysate was then fractionated by precipitation with an increasing concentration of (NH4)2SO4. […] This enriched sample was dissolved in Buffer A and then sequentially passed over four chromatography columns: DEAE Sepharose CL-6B anion exchange resin (Pharmacia, Uppsala, Sweden; elution with a linear gradient from 0 to 800 mM KCI); Phenyl-Sepharose hydrophobic interaction resin (Pharmacia; elution with a linear gradient from 1000 mM to 0 mM of (NH4)2SO4; Mono Q strong anion exchange column on the FPLC system (Pharmacia; elution with a gradient from 0 to 800 mM KCl) and finally Mono P weak anion exchange column on the FPLC (elution with a gradient from 0–800 mM KCl in a 50 mM Bis-Tris buffer instead of Buffer A). […] Finally, the enzyme was subjected to LC-ESI-MS/MS analysis after tryptic digestion and to analysis of its N-terminal amino acid sequence."}, "[3]": {"target": "T3, isolated enzyme (extracts of A×20) (Corynebacterium striatum, UniProt Q8GGD4)", "T3 construct": "an enzyme may be isolated from cellular extracts obtained from wild-type bacterial strains; endogenous in cells; host or cells: Corynebacterium striatum Ax20 (DSM 14267), mechanically disrupted; crude extract or chromatographically purified enzyme", "T3 sequence (Q8GGD4 2-400)": "as above", "assay": "Low throughput screening for inhibitors, isolated enzyme (released lauric acid by GC)", "assay_type": "biochemical", "settings": "substrate Nα-lauroyl-L-glutamine, 2 h", "procedure": "(§1) Extracts of A×20 were prepared by mechanical disruption as described in Example 3. The extract (0.5 ml corresponding to 2 ml initial cell culture) was added to 3.5 ml of Buffer A and amended with 40 μl of substrate (Nα-lauroyl-L-glutamine, 5% stock solution in methanol). Parallel samples were additionally amended with potential inhibitory compounds to give a final concentration of 0.5 and 5 mM. The samples were incubated for 2 h and then extracted with MTBE and HCI and analysed for released lauric acid using capillary GC. By comparing the samples containing potential inhibitory compounds with control samples with enzyme and substrate only, the inhibition (%) was calculated. The same assay was also made either with purified enzyme from the wild-type strain (see example 3) or with extracts from E.coli Top 10/pBADgIII AMRE induced with arabinose (see example 6). Furthermore, the same assay was made using stationary phase living cells of A×20 instead of an isolated enzyme preparation. In this case successful uptake of the inhibitors into the cells and inhibition are measured simultaneously."}, "[4]": {"target": "T4, enzyme activity in living cells of A×20 (Corynebacterium striatum, UniProt Q8GGD4)", "T4 construct": "stationary phase living cells of A×20; endogenous in cells; host or cells: Corynebacterium striatum Ax20, stationary-phase living cells", "T4 sequence (Q8GGD4 2-400)": "as above", "assay": "Low throughput screening for inhibitors, stationary phase living cells of A×20", "assay_type": "cell-based", "settings": "5 mM; substrate Nα-lauroyl-L-glutamine, 2 h", "procedure": "as §1"}, "[5]": {"target": "T5, purified enzyme obtained from E.coli Top 10/pBADgIII AMRE (Corynebacterium striatum, UniProt Q8GGD4)", "T5 construct": "made in house; host or cells: E. coli TOP10 (Invitrogen), vector pBADgIIIA, arabinose-induced", "T5 sequence (Q8GGD4 2-400)": "as above", "assay": "High throughput screening for inhibitors (fluorescamine assay of released L-glutamine)", "assay_type": "biochemical", "settings": "substrate Nα-lauroyl-L-glutamine 0.05 mM; Ki calculated from IC50", "from_the_text": "Compounds, which inhibit an enzyme of the present invention reduce the activity of the enzyme and may lead to a significant reduction of the release of malodour acids from odourless fresh sweat. […] The activity of the compounds as inhibitors may be measured in terms of either their IC50 values or their Ki values, both of which measures are well known to the person skilled in the art. As is well known, the IC50 value provides the concentration of an inhibitor needed to reduce enzyme velocity by half at a given substrate concentration. This value is dependent on the affinity of the substrate for the enzyme which is reflected in the value Km of the substrate. In this way, the Ki value may be determined for a given substrate and a given substrate concentration by measuring IC50 and then calculating according to the following formula\nPotential inhibitory compounds were dissolved in Buffer A and aliquots of the solutions of different inhibitors (10 μl) were distributed to individual wells of a white microtiter plate. Purified enzyme obtained from the strain E.coli Top 10/pBADgIII AMRE was diluted in Buffer A (200 pg/ml final concentration) and added to the inhibitory compounds. After 10 min preincubation, the substrate (Nα-lauroyl-L-glutamine) was added to the individual wells to a final concentration of 0.05 mM. After 15 min of incubation, the amino-group of the released L-glutamine was derivatised by adding to each well of the microtiter plate 50 μl of a fluorescamine stock solution (2.5 mM in acetonitrile; fluorescamine obtained from Fluka, Buchs, Switzerland). After 5 min the fluorescence in the wells of the microtiter plates was measured with an excitation wavelength of 360 nm and an emission wavelength of 460 nm. The fluorescence of control wells with enzyme, substrate and DMSO only was then compared to the fluorescence in wells containing potential inhibitors. By varying the inhibitor concentration, the IC50 value for each compound was determined, and the Ki values were calculated."}, "[6]": {"system": "other Corynebacteria and some Staphylococci", "assay": "Release of lauric acid from Nα-lauroyl-L-glutamine by axilla bacteria", "assay_type": "cell-based", "settings": "same experiment as Table 1, Nα-lauroyl-L-glutamine as substrate", "procedure": "The axillary flora of 8 panellists was isolated with the detergent-scrub method: A 6 cm^2 area of the axilla was scrubbed with a phosphate buffer at pH 7 containing 1% Tween 80. The samples were spread-plated on tryptic soy agar amended with 5 g/L of Tween 80 and 1 g/L of lecithin. Single isolates obtained after 48 h incubation were subcultured and characterised. A total of 24 individual strains were identified based on colony and cell morphology, gram-reaction, lipophilic growth, lipase reaction and API identification kits (bioMerieux, France; coryneforms with the API coryne kit and cocci with the ID Staph 32 kit). The strains were grown overnight in a liquid medium (Mueller-Hinton amended with 0.01% Tween 80), harvested by centrifugation and resuspended to a final OD600 of 1 in a semi-synthetic medium (Per litre: 3 g KH2PO4, 1.9 g K2HPO4, 0.2 g yeast extract, 0.2 g MgSO4, 1.4 g NaCl, 1 g NH4Cl, 10 mg MnCl2, 1 mg Fe3Cl2, 1 mg CaCl2). […] The Corynebacteria which are able to conduct this biochemical reaction may be found in the group of the lipophilic and in the group of the non-lipophilic Corynebacteria. Therefore, a specific enzyme only present in some bacterial strains seems to be responsible for this cleavage. Since it releases axilla malodour the putative enzyme was named AMRE, which stands for ‘axillary malodour releasing enzyme’. […]"}, "[7]": {"target": "T6, enzyme heterologously expressed in E. coli TOP10 (pBADgIIIAMRE) (Corynebacterium striatum, UniProt Q8GGD4)", "T6 construct": "made in house; host or cells: E. coli TOP10 (Invitrogen), vector pBADgIIIA, arabinose-induced", "T6 sequence (Q8GGD4 2-400)": "as above", "assay": "Enzyme assay with extracts of E. coli expressing the enzyme (release of lauric acid)", "assay_type": "biochemical", "settings": "500 ppm substrate", "from_the_text": "The full-length sequence of the open reading frame coding for the enzyme was amplified with PCR from chromosomal DNA of A×20 using specific primers (SEQ ID NO 14 and SEQ ID NO 15). The amplified DNA fragment was then digested with the restriction enzymes NcoI and Hind III It was then ligated into the vector pBADIIIA (Invitrogen, Groningen, The Netherlands) pre-digested with the same enzymes. The resulting plasmid pBADgIIIAMRE was transformed into the host strain E. coli TOP10 (Invitrogen). This strain was grown in LB broth until it reached an optical density of about 0.5 at 600 nm. The culture was induced with arabinose (0.2% final concentration) incubated for 4 h, harvested by centrifugation and disrupted by ultrasonication. Enzyme assays with Na-lauryl-Glutamine as substrate were performed in Buffer A with an incubation time of 1 h and a substrate concentration of 500 ppm. Table 3 gives the activity of extracts obtained from wild-type cells and from extracts of the induced and non-induced modified strains expressing the enzyme."}},
  "note": "“Also recorded” adds a separate entry of the source. Read-outs that look alike come from different tables or passages of the source.",
  "data": [
    {"smiles": "NC(=O)C[C@H](NC(=O)OCc1ccccc1)C(=O)O", "note": "[compound 12, Carbobenzyloxy-L-asparagine]", "values": [
      {"measurement": "Cleavage by enzyme", "setting": "[1]", "result": "−"},
      {"measurement": "melting point", "result": "102 to 104", "unit": "°C"}
    ]},
    {"smiles": "c1cnc2c(c1)ccc1cccnc12", "note": "[o-phenantrolin]", "values": [
      {"measurement": "inhibition of the enzyme", "setting": "[2]; 1 mM", "result": "completely inhibited"},
      {"measurement": "% inhibition of the isolated enzyme", "setting": "[3]; 0.5 mM", "result": 100, "unit": "%"},
      {"measurement": "% inhibition of the isolated enzyme", "setting": "[3]; 5 mM", "result": 100, "unit": "%"},
      {"measurement": "% inhibition of enzyme activity in living cells", "setting": "[4]", "result": 90.3, "unit": "%"}
    ]},
    {"smiles": "NCCc1ccc(S(=O)(=O)F)cc1", "note": "[Pefabloc SC, 4-(2-aminoethyl)-benzenesulfonylfluoride]", "values": [
      {"measurement": "enzyme activity after incubation with serin-/cystein protease inhibitor", "setting": "[2]", "result": "retained all its activity"}
    ]},
    {"smiles": "O=S(=O)(F)Cc1ccccc1", "note": "[PMSF, Phenylmethylsulfonylfluoride]", "values": [
      {"measurement": "enzyme activity after incubation with serin-/cystein protease inhibitor", "setting": "[2]", "result": "retained all its activity"}
    ]},
    {"smiles": "CC(C)C[C@H](S)C(=O)N[C@@H](CCC(N)=O)C(=O)O", "note": "[Compound 5b]", "values": [
      {"measurement": "Ki", "setting": "[5]", "result": "130 ± 10", "unit": "nM"}
    ]},
    {"smiles": "[Cl-].[Cl-].[Zn+2]", "note": "[ZnCl2]", "values": [
      {"measurement": "reversal of EDTA / o-phenantrolin inhibition", "setting": "[2]; addition of 1 mM", "result": "could be reversed"}
    ]},
    {"smiles": "NC(=O)CC[C@H](NC(=O)[C@@H](S)Cc1ccccc1)C(=O)O", "note": "[Compound 5a]", "values": [
      {"measurement": "Ki", "setting": "[5]", "result": "54 ± 1", "unit": "nM"}
    ]},
    {"smiles": "NC(=O)CCC(CP(=O)(O)Cc1ccccc1)C(=O)O", "note": "(stereo not shown) [Compound 8a]", "values": [
      {"measurement": "Ki", "setting": "[5]", "result": "50 ± 3", "unit": "nM"}
    ]},
    {"smiles": "CCCCCCCCCCCC(=O)N[C@@H](CCC(N)=O)C(=O)O", "note": "[Nα-lauroyl-L-glutamine]", "values": [
      {"measurement": "release of lauric acid from substrate by axilla bacteria", "setting": "[6]", "result": "can release lauric acid"},
      {"measurement": "cleavage of substrate by enzyme (in words)", "setting": "[1]", "result": "able to be cleaved; also recorded: can cleave"}
    ]},
    {"smiles": "O=C(O)CN(CCN(CC(=O)O)CC(=O)O)CC(=O)O", "note": "[EDTA]", "values": [
      {"measurement": "inhibition of the enzyme", "setting": "[2]", "result": "completely inhibited"}
    ]},
    {"smiles": "CCCCP(=O)(O)CC(CCC(N)=O)C(=O)O", "note": "(stereo not shown) [Compound 8c]", "values": [
      {"measurement": "Ki", "setting": "[5]", "result": "110 ± 10", "unit": "nM"}
    ]},
    {"smiles": "CCCC[C@H](S)C(=O)N[C@@H](CCC(N)=O)C(=O)O", "note": "[Compound 5c]", "values": [
      {"measurement": "Ki", "setting": "[5]", "result": "410 ± 20", "unit": "nM"}
    ]},
    {"smiles": "CCCCCCCCCCCC(=O)N[C@@H](CCC(N)=O)C(=O)O", "note": "[compound 2, Nα-lauroyl-L-glutamine]", "values": [
      {"measurement": "Cleavage by enzyme", "setting": "[1]", "result": "+++ (+++ cleavage over 50%)"},
      {"measurement": "release of lauric acid from Lauryl-Glutamine, 1 h incubation", "setting": "[7]; extract of E. coli Top 10 (wild-type), 4 h after induction", "result": "below detection"},
      {"measurement": "release of lauric acid from Lauryl-Glutamine, 1 h incubation", "setting": "[7]; extract of E. coli Top 10/pBADgIIIAMRE not induced", "result": 23, "unit": "ppm"},
      {"measurement": "release of lauric acid from Lauryl-Glutamine, 1 h incubation", "setting": "[7]; extract of E. coli Top 10 induced, 4 h after induction", "result": 329, "unit": "ppm"}
    ]},
    {"smiles": "CC(C)CP(=O)(O)CC(CCC(N)=O)C(=O)O", "note": "(stereo not shown) [Compound 8b]", "values": [
      {"measurement": "Ki", "setting": "[5]", "result": "58 ± 4", "unit": "nM"}
    ]}
  ]
}
